{
  "source": "patent US20230128770A1",
  "about": "“COMPOSITIONS AND METHODS FOR ENHANCING DIFFERENTIATION OF STEM CELL-DERIVED BETA CELLS” (President and Fellows of Harvard College, priority 2019, published 2023)",
  "key": {"[1]": {"system": "hPSC-derived MPPs differentiating into NGN3+ / CHGA+ endocrine progenitors", "assay": "Endocrine specification of MPPs at stage 5, flow cytometry and qPCR", "assay_type": "cell-based, human", "details": "for CHGA+/NKX6-1+ endocrine progenitor cells by the end of stage 5: assayed at stage 5, day 7", "description": "(§1) Differentiations into SC-β cells were performed following a protocol described in [3] and as follows: HUES8 or 1016 cells were seeded at 6×10^5 cells/mL in mTeSR1 media and […] Y27632 (Sigma-Aldrich). The media was changed 48 h later and the differentiations were started 72 h after the cells were seeded. The media changes were as follows:\n(§2) Stage 5 EN: Days 14 and 16: S5+0.25 μM Sant1+100 nM RA+1 μM XXI (EMD Millipore)+10 μM Alk5i II (Axxora)+1 μM T3 (EMD Millipore)+20 ng/mL Betacellulin (Thermo Fisher Scientific). Days 18, 20: S5+25 nM RA+1 μM XXI+10 μM Alk5i II+1 μM T3+20 ng/mL Betacellulin.\n(§3) Control and experimental samples were collected from differentiations performed in parallel with hPSC cells obtained from the same maintenance batch. Treatments with 0.35 μM verteporfin (Sigma-Aldrich), 10 μM roscovitine (Sellekchem), or DMSO (Sigma-Aldrich) were performed at the last stages of the differentiation including stage 4 (days 9-14), stage 5 (days 14-18), and stage 6 (day 18-25, first 7 days) in ultra-low attachment six-well plates (Corning).\n(§4) Differentiated cell clusters were dispersed into a single-cell suspension with TrypLE (Life Technologies) at RT, fixed with 4% paraformaldehyde at 4° C., washed three times in PBS+0.2% bovine serum albumin (Millipore)+0.1% saponin (Sigma), blocked for 30 min at 4° C. in PBS+5% donkey serum+0.1% saponin, incubated with primary antibodies overnight at 4° C., washed, and incubated with secondary antibodies for 1 h at RT. Stained, fixed cells were filtered through a 40-μm nylon mesh into flow cytometry tubes (BD Falcon) and were analyzed for relevant stage-specific marker expression using LSR II flow cytometers (BD Biosciences) and FlowJo for the data analysis. Samples stained with secondary antibodies only were used to gate on cells that are negative and accurately identified cells expressing the markers included in the analysis. For shRNA-infected samples, only infected GFP+ cells were included in the analysis (approximately in 30-40% of all cells). To quantify incorporation of EdU and estimate levels of proliferation, cells pulsed with 10 μM EdU for 4 h were dissociated as described above unless stated otherwise. The Click-IT EdU flow cytometry kit (Invitrogen) was used to detect EdU incorporation following the manufacturer's protocol with minor modifications.\nThe total RNA was isolated using the Direct-ZOL Miniprep kit (Zymo Research), and RNA was stored at −80° C. in RNA storage solution (Invitrogen) until subsequent analysis. […] Gene expression levels were determined with NanoString nSolver software with default parameters and normalized with the expression of five housekeeping genes (ITCH, RPL15, RPL19, TCEB1, and UBE2D3). […]"}, "SC-β cells": {"system": "SC-β cells", "assay": "Glucose-stimulated insulin secretion (GSIS) in vitro", "assay_type": "cell-based, human", "description": "Approximately 1×10^6 SC-β cells in clusters were washed with Krebs buffer and incubated in low (2.8 mM) glucose Krebs in cell culture inserts (Millicell) to starve cells and remove residual insulin at 37° C. for 1 h. Clusters were washed and incubated in low glucose Krebs for 1 h and the supernantant was collected. They were then transferred to high (20 mM) glucose, incubated for 1 h and the supernatant was collected. For sequential GSIS challenges, this sequence of low- and high-glucose stimulations was repeated twice. At the end, clusters were incubated in 2.8 mM glucose+30 mM KCl Krebs (depolarization challenge) for 1 h and the supernatant was collected. Clusters were dispersed into single cells using TrypLE and cell number was estimated by a Vi-Cell counter (Beckman Coulter). Insulin concentration was determined for supernatant samples using the Human Ultrasensitive Insulin ELISA (ALPCO Diagnostics). Protein extraction was performed with the M-PER extraction reagent (Thermo Scientific), and insulin content was measured for each sample using the human Ultrasensitive Insulin ELISA kit. Insulin secretion levels were normalized to total insulin content for each sample. Stimulation indexes were calculated as a ratio of insulin secretion at high glucose (20 mM) relative to the basal secretion (2.8 mM glucose)."}, "[2]": {"system": "stem cell-derived β cells (SC-β cells)", "assay": "SC-β cell differentiation assayed at end of stage 6 (stage 6, day 14), flow cytometry", "assay_type": "cell-based, human", "description": "as §1, §2\nStage 6 (3: Days 21-35 (change every other day): S3 media. In the final stage, cells were analyzed between 28 and 35 days of the protocol.\nas §3\nFor infection, cell clusters collected from spinner flask suspension cultures were dissociated in Accutase (StemCell Technologies) for 10 min, followed by mechanical dissociation and centrifugation at 230 g for 5 min at room temperature (RT). Cell pellets were resuspended at a density of 2.5 million cells/mL in the stage-matched medium with polybrene reagent (Santa Cruz) at 8 μg/mL. Single-cell suspensions were combined with concentrated lentiviral particles and plated on ultra-low attachment six-well plates on a rocker plate set at 70 rpm in a 37° C. incubator, 5% CO2, and 100% humidity. Feeding schedule was followed depending on the stage of differentiation as described above.\nas §4"}, "SC-β cell grafts": {"system": "SC-β cell grafts", "assay": "Mouse transplantation analysis of SC-β cell grafts under the kidney capsule", "assay_type": "in vivo, immunodeficient SCID-beige mice", "description": "Cell clusters were collected at the end of each of the differentiation stages and fixed with 4% paraformaldehyde for 1 h at RT, washed in 30% sucrose, embedded in OCT compound (Tissue-Tek) and sectioned for histological analysis. Clusters were blocked with PBS+ 0.1% Triton X-100 (VWR)+5% donkey serum (Jackson Immunoresearch) for 30 min at RT, incubated with primary antibodies overnight at 4° C., washed, and incubated with secondary antibodies for 1 h at RT. Stained clusters were washed and mounted in Flouromount-G (Invitrogen), covered with coverslips, and sealed with nail polish. Images were taken using a Zeis Axio Imager.Z2 and Apotome.2. Image analysis was performed with ImageJ. To estimate the relative proportion of cells in the graft, four tissue sections from different areas in the graft were imaged, and the relative proportions of relevant cell types were quantified as a percent of cells positive for the relevant marker of the total number DAPI nuclei. […]\nDissociated SC-β cells were transplanted into the kidney capsule of immunodeficient SCID-beige mice (Jackson Laboratory), aged 8-10 weeks. […] Wound clips were removed 10 days after surgery and mice were monitored twice a week.\nMice were then analyzed for graft function at various time points by performing in vivo [3]. […]"}, "[3]": {"system": "hPSC-derived multipotent pancreatic progenitors (MPPs)", "assay_type": "cell-based, human", "details": "0.35 μM verteporfin during stage 4, vs DMSO", "description": "as §1\nControl and experimental samples were collected from differentiations performed in parallel with hPSC cells obtained from the same maintenance batch. […]\nas §4, with “Samples stained with secondary antibodies only were used to gate on cells that are negative and accurately identified cells expressing the markers included in the analysis. For shRNA-infected samples, only infected GFP+ cells were included in the analysis (approximately in 30-40% of all cells).” left out, “The Click-IT EdU flow cytometry kit (Invitrogen) was used to detect EdU incorporation following the manufacturer's protocol with minor modifications.” left out"}},
  "data": [
    {"compound": "CC[C@H](CO)Nc1nc(NCc2ccccc2)c2ncn(C(C)C)c2n1", "note": "[roscovitine]", "values": [
      {"measurement": "differentiation of MPPs into NGN3+ endocrine progenitors (in words)", "setting": "[1]; 10 μM roscovitine at stage 5, stage 5, day 4, compared with the verteporfin effect", "value": "did not have the same effect"},
      {"measurement": "CHGA+/NKX6-1+ endocrine progenitor cells by the end of stage 5", "setting": "[1]; treatment during stage 5", "value": "not observed"}
    ]},
    {"compound": "verteporfin", "values": [
      {"measurement": "proportion of NGN3+ endocrine progenitors", "setting": "[1]; treatment during stage 5, assayed at stage 5, day 4, DMSO control 6.4±0.52%", "value": "12.1±2", "unit": "%"},
      {"measurement": "CHGA+/NKX6-1+ endocrine progenitor cells by the end of stage 5", "setting": "[1]; treatment during stage 5", "value": "increase"},
      {"measurement": "levels of insulin secretion per total insulin content at 2.8 mM glucose, 20 mM glucose, and 30 mM KCl", "setting": "SC-β cells; SC-β cells differentiated with verteporfin vs DMSO control", "value": "significantly higher"},
      {"measurement": "insulin secretion at high glucose over low glucose in sequential glucose stimulations", "setting": "SC-β cells; verteporfin during stages 5 and 6, 20 mM vs 2.8 mM glucose", "value": "increase in insulin secretion at high glucose over low glucose"},
      {"measurement": "stimulation indexes (insulin secretion at 20 mM relative to 2.8 mM glucose)", "setting": "SC-β cells; verteporfin-treated vs control endocrine cells", "value": "no statistically significant differences"},
      {"measurement": "proportion of C-peptide+/NKX6.1+ β cells", "setting": "[2]; 0.35 μM verteporfin, end of stage 6, control 27.5±4.2%", "value": "38.6±3.9", "unit": "%"},
      {"measurement": "glucagon+/C-peptide- alpha cells", "setting": "[2]; 0.35 μM verteporfin, end of stage 6, vs control", "value": "modest but significant increase"},
      {"measurement": "effect on SC-endocrine and β-cell differentiation in other hPSC cell lines", "setting": "[2]; 1016 and 13B iPSC lines, C-peptide/NKX6.1 and CHGA/NKX6.1 at stage 6 day 14", "value": "robust and independent of the genetic background"},
      {"measurement": "proportion of SOX9+ ductal-like progenitor cells", "setting": "[2]; treatment during endocrine and β-cell differentiation stages, end of stage 6, vs control", "value": "decrease"},
      {"measurement": "proportion of Ki67+ proliferating cells", "setting": "[2]; verteporfin during endocrine and β-cell differentiation stages, end of stage 6, vs control", "value": "decrease"},
      {"measurement": "impaired endocrine differentiation upon YAPS6A overexpression", "setting": "[2]; verteporfin treatment of YAPS6A-overexpressing cells, C-peptide/NKX6.1 at stage 6 day 14", "value": "rescued"},
      {"measurement": "proportion of SOX9+ cells in the grafts", "setting": "SC-β cell grafts; cells differentiated in the presence of verteporfin, 12-week post transplantation, SOX9+ of DAPI+, control grafts ~17%", "value": 3.1, "unit": "%"},
      {"measurement": "in vivo glucose-stimulated human insulin secretion", "setting": "SC-β cell grafts; grafts of cells differentiated in the presence of verteporfin, serum human insulin before and 30 min after glucose injection, 8 weeks post transplantation", "value": "robust"},
      {"measurement": "proportion of MPPs coexpressing the proliferation marker Ki67", "setting": "[3]; PDX1/Ki67 at end of stage 4", "value": "twofold decrease"},
      {"measurement": "number of NKX6.1+ progenitors compared with control differentiations", "setting": "[3]; PDX1/NKX6.1 co-positive cells at end of stage 4", "value": "significant decrease"}
    ]}
  ]
}
